# In patent publication US9079891B2, “Compounds that modulate intracellular calcium” (CALCIMEDICA, INC., priority 2010, dated 2015):
# Like-named read-outs stand apart in the source and are kept apart here.
# What was measured:
# [1] = biological target: T1, recombinant human STIM1 and Orai1 (Homo sapiens, UniProt Q96D31); assay: Fluorescence-based assay of store-operated calcium entry in Orai1/STIM1 stable cells (FLIPR); format: cell-based; details: HEK-293 cells stably expressing human Orai1/STIM1; Fluo-4; Peak-Basal signal; read-out: FLIPR_CRAC: 9 point CRC: O1S1_JR251: IC50: Peak_over_Basal
# T1 construct: c-myc (C); expressed in transfected cells; host or cells: HEK-293 cells stably expressing human STIM1 and human Orai1
# T1 sequence (Q96D31 whole entry): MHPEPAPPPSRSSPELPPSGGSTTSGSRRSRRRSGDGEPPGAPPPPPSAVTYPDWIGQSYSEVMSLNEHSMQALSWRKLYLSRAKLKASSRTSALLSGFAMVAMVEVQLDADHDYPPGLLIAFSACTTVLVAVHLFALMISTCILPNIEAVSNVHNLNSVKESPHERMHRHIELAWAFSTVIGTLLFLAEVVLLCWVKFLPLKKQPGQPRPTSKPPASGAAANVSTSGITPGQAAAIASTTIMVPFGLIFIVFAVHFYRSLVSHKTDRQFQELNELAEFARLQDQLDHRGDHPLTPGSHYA
# Experimental: A. Fluorescence-Based Assay of Store-Operated Calcium Entry in Orai1/Stim1 Stable Cells.
# Cells stably expressing recombinant human STIM1 and Orai1 are generated by transfecting a human Orai1 expression plasmid (pcDNA3.1-Orai1-cmyc) into HEK-293 cells stably overexpressing human STIM1 (Roos et al. 2005 JCB 169(3): 435-445). Colonies of cells stably expressing both STIM1 and Orai1 proteins are selected and then subcloned by limiting dilution. Cells were cultured at 37° C./6% CO2 in complete medium with 10% FBS and appropriate selection markers.
# The day prior to performing the assay Orai1/STIM1 stable cells are plated in 50 μL of complete medium at 90-95% confluence in a 384 well plate. Cells are grown at 37° C./6% CO2 overnight. On the day of the assay, 1.5 μM fluo-4-AM (Invitrogen) in complete medium is added to the cells, which are then incubated for 1 hour at RT. Cells are washed once in Ca^2+-free HBSS (Hank's buffered saline solution) and 35 μl of Ca^2+-free HBSS is added to each well. Test compounds are added to wells in a 10 μL Ca^2+-free HBSS solution, prepared at 4.5× the desired final concentration, and incubated for 30 minutes at RT. The initial baseline fluorescence signal is then measured with a FLIPR^384 (Molecular Devices) plate reader. Calcium entry is initiated by adding 5 μl of 10×CaCl2 (10 mM) in HBSS, and changes in cellular fluorescence are measured with the FLIPR^384 plate reader. In each well, the magnitude of the fluorescence signal as a result of calcium entry into the cell is determined by calculating the difference between the peak fluorescence signal measured after calcium addition and the initial baseline fluorescence signal (designated Peak-Basal). IC50 values are typically calculated as the concentration that inhibited 50% of the Peak-Basal signal.
# RBL-2H3 cells = assay: Fluorescence-based assay of store-operated calcium entry in RBL-2H3 cells (FLIPR, thapsigargin); format: cell-based, rat; details: Fluo-4, Upslope 0-7 sec, read-out: FLIPR_CRAC: 9 pt CRC - Fluo4_TG-D: RBL-2H3: IC50: Upslope 0-7 sec
# Experimental: B. Fluorescence-Based Assay of Store-Operated Calcium Entry in RBL-2H3 Cells.
# RBL-2H3 cells are obtained from ATCC and maintained in complete medium with 10% FBS at 37° C./6% CO2.
# The day prior to performing the assay, RBL-2H3 cells are plated in 50 μl of complete medium in a 384 well plate. Cells are grown at 37° C./6% CO2 overnight and grow to 50-60% confluence by the next day. On the assay day, 1.5 μM Fluo-4-AM dye (Invitrogen) in complete medium is added and incubated for 1 hour at RT. Cells are washed twice in Ca^2+-free HBSS buffer and 35 μl Ca^2+-free HBSS buffer is added to each well. 10 μl of a test compound prepared in a Ca^2+-free HBSS solution at 4.5× of the desired concentration is added to a well and incubated for 5 minutes at RT. 10 μl of thapsigargin prepared in a Ca^2+-free HBSS solution at 5.5× of the desired concentration (5.5 uM) is added to each well and incubated for an additional 25 minutes. The initial baseline fluorescence signal is measured with a FLIPR^384 (Molecular Devices) plate reader. 5 μl of 12× calcium in HBSS (12 mM) is added and changes in cellular fluorescence are measured with the FLIPR^384 plate reader. In each well, the change in the fluorescent signal as a function of time due to calcium entry into the cell is determined by calculating the difference between the fluorescent signal measured 7 seconds after calcium addition and the initial baseline fluorescence signal at time zero (t=0). This parameter is designated Upslope. The IC50 value is calculated as the concentration at which 50% of the Upslope is inhibited.
# [2] = system: secreted IL-2 in Jurkat T cells; assay: In vitro assay of cytokine (IL-2) release from T cells; format: cell-based; details: Jurkat E6-1 cells, PHA/TPA stimulation 20 hours, IL-2 ELISA
# Experimental: In Vitro Assay of Cytokine Release from T Cells
# Jurkat E6-1 cells are obtained from ATCC and maintained in complete medium with 10% FBS at 37° C./6% CO2.
# The day prior to performing the assay, Jurkat T cells are plated in 90 μL of HBSS Buffer with 1.8 mM CaCl2 and 1.75% fetal bovine serum (FBS) in a 96 well plate at a density of 1.5×10^5 cells/well for 3 hours. 10 μl of 10× test compound prepared in HBSS is added and incubated for 10 minutes at 37° C./6% CO2. Cells are stimulated by the addition of 10 μl of 11×PHA/TPA (27.5 μg/mL PHA/880 nM TPA) and incubated at 37° C./6% CO2 for 20 hours. On the following day, the supernatants are collected and assayed for IL-2 levels by ELISA according to the manufacturer's protocols. The IC50 value is calculated as the concentration at which 50% of secreted IL-2 in vehicle treated cells is inhibited.
Structure (SMILES),IC50 [1] [nM],IC50 (RBL-2H3 cells; Rattus norvegicus) [nM],IC50 ([2]; Homo sapiens) [nM],IC50 (RBL-2H3 cells) [nM],IC50 [2] [nM]
Cc1nc(-c2cc(-c3cnc(NC(=O)c4ccccc4Cl)s3)n(C)n2)no1 [Example 48],< 600,–,–,600 to 1200,> 100
"Cc1cc2scnc2cc1-c1ccc(C(=O)Nc2ccccc2Cl)s1 [Example 6, N-(2-chlorophenyl)[5-(6-methylbenzothiazol-5-yl)(2-thienyl)]carboxamide]",< 600,< 600,< 50,–,–
"O=C(Nc1c(F)cccc1F)c1ccc(-c2cc3scnc3cc2Cl)s1 [Example 7, N-(2,6-difluorophenyl)[5-(5-chlorobenzothiazol-6-yl)(2-thienyl)]carboxamide]",< 600,< 600,< 50,–,–
"CCn1nc(C(F)(F)F)cc1-c1cnc(NC(=O)c2ccccc2Cl)s1 [Example 24, (2-chlorophenyl)-N-{5-[1-ethyl-3-(trifluoromethyl)pyrazol-5-yl](1,3-thiazol-2-yl)}carboxamide]",600 to 1200,< 600,< 50,–,–
"Cc1cc2c(C)noc2cc1-c1ccc(C(=O)Nc2c(F)cccc2F)s1 [Example 10, N-(2,6-difluorophenyl)[5-(3,5-dimethylbenzo[d]isoxazol-6-yl)(2-thienyl)]carboxamide]",< 600,< 600,< 50,–,–
"Cn1nc(C(F)(F)F)cc1-c1cnc(NC(=O)c2ccccc2Cl)s1 [Example 27, (2-chlorophenyl)-N-{5-[1-methyl-3-(trifluoromethyl)pyrazol-5-yl](1,3-thiazol-2-yl)}carboxamide]",< 600,< 600,< 50,–,–
"Cc1cc2c(cc1-c1cnc(NC(=O)c3c(F)cccc3F)s1)OC(F)(F)O2 [Example 83, (2,6-difluorophenyl)-N-[5-(2,2-difluoro-6-methylbenzo[d]1,3-dioxolen-5-yl)(1,3-thiazol-2-yl)]carboxamide]",> 1200,< 600,< 50,–,–

# Second part, led by results:
IC50 [1] [nM],IC50 (RBL-2H3 cells; Rattus norvegicus) [nM],IC50 ([2]; Homo sapiens) [nM],Structure (SMILES),IC50 (RBL-2H3 cells) [nM],IC50 [2] [nM]
< 600,< 600,< 50,"Cc1nc2cc(Cl)c(-c3ccc(C(=O)Nc4ccccc4Cl)s3)cc2o1 [Example 1, [5-(5-chloro-2-methylbenzoxazol-6-yl)(2-thienyl)]-N-(2-chlorophenyl)carboxamide]",–,–
< 600,< 600,< 50,"Cc1nc2cc(Cl)c(-c3ccc(C(=O)Nc4ccccc4F)s3)cc2o1 [Example 2, [5-(5-chloro-2-methylbenzoxazol-6-yl)(2-thienyl)]-N-(2-fluorophenyl)carboxamide]",–,–
< 600,< 600,< 50,Cn1nc(-c2ccco2)cc1-c1ccc(C(=O)Nc2ccccc2F)s1 [Example 61],–,–
